{
  "source": "patent US20240277713A1",
  "about": "(Kadmon Corporation, LLC, priority 2022, published 2024)",
  "key": {"Solubility": {"assay": "Solubility", "assay_type": "physicochemical", "procedure": "The tablet film consists of polyvinyl alcohol, polyethylene glycol, talc, titanium dioxide and yellow iron oxide. Each 200 mg tablet is a pale-yellow film-coated oblong tablet debossed with “KDM” on one side and “200” on the other side. Tablets are stored at room temperature, 20° C. to 25° C. (68° F. to 77° F.); excursions permitted from 15° C. and 30° C. (59° F. to 86° F.)."}, "[1]": {"assay": "Toxicokinetic evaluation in pregnant rats (Example 3)", "assay_type": "in vivo, rat", "source_text": "Animals received in-life and postmorten evaluations."}, "[2]": {"assay": "Toxicokinetics in pregnant Sprague-Dawley rats (Example 1)", "assay_type": "in vivo, rat", "details": "belumosudil 25 mg base/kg/day oral, GD 17"}, "[3]": {"assay": "Toxicokinetic evaluation in pregnant rabbits (Example 4)", "assay_type": "in vivo, rabbit", "experimental": "The dose levels for the treated groups were 50, 125, 225, mg base/kg/day at a dose volume of 10 mL/kg. The control group received the vehicle in the same manner as the treated groups. […] Individual doses were based on the most recent body weights.\nObservations of the animals included clinical signs, body weights, food consumption, and anatomical pathology including a uterine examination. […] All fetuses were given an external, visceral, and skeletal examination."}, "[4]": {"assay": "Toxicokinetic analysis in rat plasma (Example 5)", "assay_type": "in vivo", "procedure": "TK animals were dosed for 70 and 14 days for the males and females, respectively. Dosing of TK males and females was initiated simultaneously, continuing to euthanasia. Refrigerated daily aliquots of dosing formulations were brought to room temperature while continuously stirring for at least 30 minutes prior to dosing."}, "[5]": {"assay": "Toxicokinetics in pregnant New Zealand White rabbits (Example 2)", "assay_type": "in vivo, rabbit", "details": "GD 18", "procedure": "The study was conducted in two phases: Phase A was a dose range finding tolerance study with non-pregnant rabbits, and Phase B was the pilot developmental toxicity study.\nAll fetuses were given the appropriate external examination."}, "patients with cGVHD": {"tested_on": "patients with cGVHD", "details": "cited from earlier work"}, "[6]": {"details": "GD 6, belumosudil 15 mg base/kg oral"}, "[7]": {"details": "GD 6, belumosudil 50 mg base/kg oral"}, "[8]": {"details": "GD 6, belumosudil 150 mg base/kg oral"}, "[9]": {"details": "GD 17, belumosudil 15 mg base/kg oral"}, "[10]": {"details": "GD 17, belumosudil 50 mg base/kg oral"}, "[11]": {"details": "GD 17, belumosudil 150 mg base/kg oral"}, "[12]": {"details": "GD 6, belumosudil 125 mg base/kg oral"}, "[13]": {"details": "GD 6, belumosudil 225 mg base/kg oral"}, "[14]": {"details": "GD 18, belumosudil 50 mg base/kg oral"}, "[15]": {"details": "GD 18, belumosudil 125 mg base/kg oral"}, "[16]": {"details": "GD 18, belumosudil 225 mg base/kg oral"}, "[17]": {"details": "Day 1, belumosudil 50 mg base/kg, F"}, "[18]": {"details": "Day 1, belumosudil 50 mg base/kg, M"}, "[19]": {"details": "Day 1, belumosudil 150 mg base/kg, F"}, "[20]": {"details": "Day 1, belumosudil 150 mg base/kg, M"}, "[21]": {"details": "Day 1, belumosudil 275 mg base/kg, F"}, "[22]": {"details": "Day 1, belumosudil 275 mg base/kg, M"}, "[23]": {"details": "Day 14, belumosudil 50 mg base/kg, F"}, "[24]": {"details": "Day 14, belumosudil 150 mg base/kg, F"}, "[25]": {"details": "Day 14, belumosudil 275 mg base/kg, F"}, "[26]": {"details": "Day 70, belumosudil 50 mg base/kg, M"}, "[27]": {"details": "Day 70, belumosudil 150 mg base/kg, M"}, "[28]": {"details": "Day 70, belumosudil 275 mg base/kg, M"}, "[29]": {"details": "belumosudil 50 mg base/kg/day oral"}, "[30]": {"details": "belumosudil 250 mg base/kg/day oral"}},
  "note": "Where a name gives a salt, the structure may show the parent alone.",
  "data": [
    {"smiles": "CC(C)NC(=O)COc1cccc(-c2nc(Nc3ccc4[nH]ncc4c3)c3ccccc3n2)c1", "note": "[Belumosudil mesylate, 2-{3-[4-(1H-indazol-5-ylamino)-2-quinazolinyl]phenoxy}-N-(propan-2-yl) acetamide methanesulfonate (1:1)]", "values": [
      {"measurement": "solubility in DMSO", "setting": "Solubility", "result": "soluble in DMSO"},
      {"measurement": "solubility in methanol and DMF", "setting": "Solubility", "result": "slightly soluble in methanol and DMF"},
      {"measurement": "solubility in water", "setting": "Solubility", "result": "practically insoluble in water"}
    ]},
    {"smiles": "O=C(O)COc1cccc(-c2nc(Nc3ccc4[nH]ncc4c3)c3ccccc3n2)c1", "note": "[KD025m2]", "values": [
      {"measurement": "Mean AUC0-24 in plasma of pregnant rats", "setting": "[1]; [6]", "result": 515, "unit": "ng·h/mL"},
      {"measurement": "Mean Cmax in plasma of pregnant rats", "setting": "[1]; [6]", "result": 76.2, "unit": "ng/mL"},
      {"measurement": "Mean AUC0-24 in plasma of pregnant rats", "setting": "[1]; [7]", "result": 3050, "unit": "ng·h/mL"},
      {"measurement": "Mean Cmax in plasma of pregnant rats", "setting": "[1]; [7]", "result": 191, "unit": "ng/mL"},
      {"measurement": "Mean AUC0-24 in plasma of pregnant rats", "setting": "[1]; [8]", "result": 10500, "unit": "ng·h/mL"},
      {"measurement": "Mean Cmax in plasma of pregnant rats", "setting": "[1]; [8]", "result": 519, "unit": "ng/mL"},
      {"measurement": "Mean AUC0-24 in plasma of pregnant rats", "setting": "[1]; [9]", "result": 572, "unit": "ng·h/mL"},
      {"measurement": "Mean Cmax in plasma of pregnant rats", "setting": "[1]; [9]", "result": 55.6, "unit": "ng/mL"},
      {"measurement": "Mean AUC0-24 in plasma of pregnant rats", "setting": "[1]; [10]", "result": 3580, "unit": "ng·h/mL"},
      {"measurement": "Mean Cmax in plasma of pregnant rats", "setting": "[1]; [10]", "result": 350, "unit": "ng/mL"},
      {"measurement": "Mean AUC0-24 in plasma of pregnant rats", "setting": "[1]; [11]", "result": 11100, "unit": "ng·h/mL"},
      {"measurement": "Mean Cmax in plasma of pregnant rats", "setting": "[1]; [11]", "result": 972, "unit": "ng/mL"},
      {"measurement": "accumulation after multiple dosing of belumosudil", "setting": "[1]; pregnant rats", "result": "No apparent accumulation"},
      {"measurement": "maternal AUC0-24", "setting": "[2]", "result": 1480, "unit": "ng·h/mL"},
      {"measurement": "maternal Cmax", "setting": "[2]", "result": 127, "unit": "ng/mL"},
      {"measurement": "Mean AUC0-24 in plasma of pregnant rabbits", "setting": "[3]; [7]", "result": 4180, "unit": "ng·h/mL"},
      {"measurement": "Mean Cmax in plasma of pregnant rabbits", "setting": "[3]; [7]", "result": 1170, "unit": "ng/mL"},
      {"measurement": "Mean AUC0-24 in plasma of pregnant rabbits", "setting": "[3]; [12]", "result": 13600, "unit": "ng·h/mL"},
      {"measurement": "Mean Cmax in plasma of pregnant rabbits", "setting": "[3]; [12]", "result": 2180, "unit": "ng/mL"},
      {"measurement": "Mean AUC0-24 in plasma of pregnant rabbits", "setting": "[3]; [13]", "result": 42400, "unit": "ng·h/mL"},
      {"measurement": "Mean Cmax in plasma of pregnant rabbits", "setting": "[3]; [13]", "result": 3190, "unit": "ng/mL"},
      {"measurement": "Mean AUC0-24 in plasma of pregnant rabbits", "setting": "[3]; [14]", "result": 2470, "unit": "ng·h/mL"},
      {"measurement": "Mean Cmax in plasma of pregnant rabbits", "setting": "[3]; [14]", "result": 1120, "unit": "ng/mL"},
      {"measurement": "Mean AUC0-24 in plasma of pregnant rabbits", "setting": "[3]; [15]", "result": 16700, "unit": "ng·h/mL"},
      {"measurement": "Mean Cmax in plasma of pregnant rabbits", "setting": "[3]; [15]", "result": 3610, "unit": "ng/mL"},
      {"measurement": "Mean AUC0-24 in plasma of pregnant rabbits", "setting": "[3]; [16]", "result": 41500, "unit": "ng·h/mL"},
      {"measurement": "Mean Cmax in plasma of pregnant rabbits", "setting": "[3]; [16]", "result": 4620, "unit": "ng/mL"},
      {"measurement": "accumulation after multiple dosing of belumosudil", "setting": "[3]; pregnant rabbits", "result": "no apparent accumulation"},
      {"measurement": "AUC0-24 in rat plasma", "setting": "[4]; [17]", "result": 2110, "unit": "ng·h/mL"},
      {"measurement": "Cmax in rat plasma", "setting": "[4]; [17]", "result": 135, "unit": "ng/mL"},
      {"measurement": "AUC0-24 in rat plasma", "setting": "[4]; [18]", "result": 5440, "unit": "ng·h/mL"},
      {"measurement": "Cmax in rat plasma", "setting": "[4]; [18]", "result": 501, "unit": "ng/mL"},
      {"measurement": "AUC0-24 in rat plasma", "setting": "[4]; [19]", "result": 6860, "unit": "ng·h/mL"},
      {"measurement": "Cmax in rat plasma", "setting": "[4]; [19]", "result": 398, "unit": "ng/mL"},
      {"measurement": "AUC0-24 in rat plasma", "setting": "[4]; [20]", "result": 13600, "unit": "ng·h/mL"},
      {"measurement": "Cmax in rat plasma", "setting": "[4]; [20]", "result": 686, "unit": "ng/mL"},
      {"measurement": "AUC0-24 in rat plasma", "setting": "[4]; [21]", "result": 11500, "unit": "ng·h/mL"},
      {"measurement": "Cmax in rat plasma", "setting": "[4]; [21]", "result": 925, "unit": "ng/mL"},
      {"measurement": "AUC0-24 in rat plasma", "setting": "[4]; [22]", "result": 21500, "unit": "ng·h/mL"},
      {"measurement": "Cmax in rat plasma", "setting": "[4]; [22]", "result": 1680, "unit": "ng/mL"},
      {"measurement": "AR (Accumulation Ratio) AUC0-24", "setting": "[4]; [23]", "result": 0.657},
      {"measurement": "AUC0-24 in rat plasma", "setting": "[4]; [23]", "result": 1390, "unit": "ng·h/mL"},
      {"measurement": "Cmax in rat plasma", "setting": "[4]; [23]", "result": 125, "unit": "ng/mL"},
      {"measurement": "AR (Accumulation Ratio) AUC0-24", "setting": "[4]; [24]", "result": 1.04},
      {"measurement": "AUC0-24 in rat plasma", "setting": "[4]; [24]", "result": 7110, "unit": "ng·h/mL"},
      {"measurement": "Cmax in rat plasma", "setting": "[4]; [24]", "result": 523, "unit": "ng/mL"},
      {"measurement": "AR (Accumulation Ratio) AUC0-24", "setting": "[4]; [25]", "result": 1.80},
      {"measurement": "AUC0-24 in rat plasma", "setting": "[4]; [25]", "result": 20700, "unit": "ng·h/mL"},
      {"measurement": "Cmax in rat plasma", "setting": "[4]; [25]", "result": 1480, "unit": "ng/mL"},
      {"measurement": "AR (Accumulation Ratio) AUC0-24", "setting": "[4]; [26]", "result": 0.750},
      {"measurement": "AUC0-24 in rat plasma", "setting": "[4]; [26]", "result": 4080, "unit": "ng·h/mL"},
      {"measurement": "Cmax in rat plasma", "setting": "[4]; [26]", "result": 410, "unit": "ng/mL"},
      {"measurement": "AR (Accumulation Ratio) AUC0-24", "setting": "[4]; [27]", "result": 0.701},
      {"measurement": "AUC0-24 in rat plasma", "setting": "[4]; [27]", "result": 9520, "unit": "ng·h/mL"},
      {"measurement": "Cmax in rat plasma", "setting": "[4]; [27]", "result": 1070, "unit": "ng/mL"},
      {"measurement": "AR (Accumulation Ratio) AUC0-24", "setting": "[4]; [28]", "result": 1.35},
      {"measurement": "AUC0-24 in rat plasma", "setting": "[4]; [28]", "result": 28900, "unit": "ng·h/mL"},
      {"measurement": "Cmax in rat plasma", "setting": "[4]; [28]", "result": 1900, "unit": "ng/mL"},
      {"measurement": "accumulation after multiple doses of belumosudil", "setting": "[4]; rats", "result": "less than 2 fold"},
      {"measurement": "maternal AUC0-24", "setting": "[5]; [29]", "result": 2990, "unit": "ng·h/mL"},
      {"measurement": "maternal Cmax", "setting": "[5]; [29]", "result": 1090, "unit": "ng/mL"},
      {"measurement": "maternal AUC0-24", "setting": "[5]; [30]", "result": 19700, "unit": "ng·h/mL"},
      {"measurement": "maternal Cmax", "setting": "[5]; [30]", "result": 3080, "unit": "ng/mL"}
    ]},
    {"smiles": "C=CC(=O)N1CCC[C@@H](n2nc(-c3ccc(Oc4ccccc4)cc3)c3c(N)ncnc32)C1", "note": "[ibrutinib]", "values": [
      {"measurement": "discontinuation rate because of TEAEs", "setting": "patients with cGVHD", "result": 43, "unit": "%"}
    ]}
  ]
}
